Measured values from article PMC6089342 (ACS chemical biology, 2017).

Assays:
[1] = molecular target: T1, YFP-PARP14 MD2 (Homo sapiens, UniProt Q460N5); assay: Laser micro-irradiation assay, recruitment of YFP-PARP14 MD2 to DNA damage sites; type: cell-based; settings: U-2 OS cells
T1 sequence (Q460N5 1003-1190 limits assumed): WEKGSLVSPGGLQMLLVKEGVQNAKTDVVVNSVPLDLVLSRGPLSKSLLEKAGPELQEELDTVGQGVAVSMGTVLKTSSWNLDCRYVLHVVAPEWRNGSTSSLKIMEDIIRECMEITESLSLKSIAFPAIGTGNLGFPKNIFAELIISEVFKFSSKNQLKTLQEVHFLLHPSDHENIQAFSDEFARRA

[2] = molecular target: T2, PARP14 MD2 (Homo sapiens, UniProt Q460N5); assay: Isothermal titration calorimetry; type: binding; settings: negative control, Figure 1D
T2 sequence (Q460N5 994-1191): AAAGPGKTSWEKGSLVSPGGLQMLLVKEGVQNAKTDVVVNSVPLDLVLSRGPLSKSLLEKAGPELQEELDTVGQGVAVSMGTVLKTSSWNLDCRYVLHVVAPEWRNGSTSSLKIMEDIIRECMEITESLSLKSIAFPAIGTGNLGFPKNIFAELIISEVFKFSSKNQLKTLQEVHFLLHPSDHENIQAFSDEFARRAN

`O=C(c1cc(Cc2n[nH]c(=O)c3ccccc23)ccc1F)N1CCN(C(=O)C2CC2)CC1` [Olaparib, reference compound] was tested, and the “PARP14 MD2 recruitment to laser-induced DNA damage sites” value ([1]; 10 µM, pre-treated 1 hour) was “recruitment of the macrodomain could not be detected”.
In the case of `CC(=O)Nc1ccncc1-c1cccc2c1[nH]c1ccccc12` [MnK2-68], the “binding to PARP14 MD2” value [2] is reported as “did not bind” and the “PARP14 MD2 recruitment to laser-induced DNA damage sites” value ([1]; negative control, concentration not given) is reported as “did not interfere with PARP14 MD2 recruitment”.
